Counter-ions that a name gives are not always drawn.
Legend:
μOR = biological target: T1, μOR (Homo sapiens, UniProt P35372); experiment: Opioid receptor competitive binding test, μOR; conditions: compound at 10 μM; [3H]-labeled ligand; CHO cell membranes; ± SD of three measurements
T1 construct: expressed in transfected cells; host or cells: CHO cells
Protocol: (§1) CHO cells expressing p opioid receptor, δ opioid receptor and K opioid receptor are cultured in a 10 cm^2 Petri dish (F-12 medium+10% newborn bovine serum) for several days, and the culture solution is sucked after the cells grew to the bottom of the dish. 3 ml PBS/EDTA solution (0.1M NaCl, 0.01M NaH2PO4, 0.04% EDTA) is added for digestion for 3-5 minutes. The cells are blown with a straw to get fall off completely, collected in a 40 ml centrifuge tube, centrifuged at 5000 rpm for 5 minutes, and removed with the supernatant. The centrifuge tube is added with ice-cold homogenate (50 mM HEPES PH 7.4, 3 mM MgCl2, 1 mM EGTA). The solution and precipitate are transferred to homogenizer for homogenization; Then the homogenate is transferred into a centrifuge tube, centrifuged at 18000 rpm for 15 minutes, and centrifuged twice; the obtained precipitate is added with an appropriate amount of buffer solution of 50 mM Tris-HCl and pH 7.4, homogenized and sub-packaged in centrifuge tubes. The product is stored in a refrigerator at −70° C. for later use.
(§2) 20-30 μg expressed membrane receptor protein and [3H]-labeled ligand (1-2 nM) are added to the total binding tube, added with 1 μM of corresponding ligand to the corresponding nonspecific binding tube. Various screened opioid ligand drugs (see the drug compounds in Table 1 below) are added to the sample tube with 100 μL final volume. The sample is incubated at 30° C. for 30 minutes, and the reaction is terminated in ice water. The glass fiber filter paper gF/C (whatman) is used for negative pressure filtration on Millipore sample collector. The sample is eluted with 4 ml 50 mm tris-HCl (pH 7.4) for three times, dried with the filter paper, put in 0.5 ml Eppendorf tube and added with 0.5 ml lipophilic scintillation liquid. The radioactive intensity is measured with PERKIN ELMER PRI-CARB 2910 liquid scintillation counter with calculation of the inhibition rate. The experiment is repeated for more than three times, with three compound tubes in each group. Inhibition rate(or binding rate)=(total binding rate dpm−sample tube dpm)/(total binding tube dpm-nonspecific binding tube dpm)×100%
(§3) IC50 is calculated with Prism 5.0 software. The Ki value is calculated according to the following formula: Ki=IC50/(1^+[L]/Kd), wherein [L] is the concentration of the added labeled ligand, and Kd is the equilibrium dissociation parameter of the labeled ligand.

δOR = biological target: T2, δOR (Homo sapiens, UniProt P41143); experiment: Opioid receptor competitive binding test, δOR; conditions: compound at 10 μM; [3H]-labeled ligand; CHO cell membranes; ± SD of three measurements
T2 construct: expressed in transfected cells; host or cells: CHO cells
Protocol: as §1, §2, §3

κOR = biological target: T3, κOR (Homo sapiens, UniProt P41145); experiment: Opioid receptor competitive binding test, κOR; conditions: compound at 10 μM; [3H]-labeled ligand; CHO cell membranes; ± SD of three measurements
T3 construct: expressed in transfected cells; host or cells: CHO cells
Protocol: as §1, §2, §3

Female Kunming mice = experiment: Hot plate analgesia test in mice; type: in vivo; conditions: intraperitoneal, 55° C. hot plate; for ED50: Mus musculus, ip
Protocol: Female Kunming mice weighing about 20 g are placed on a hot plate instrument preheated to 55° C., and the latency of licking hind feet or lifting hind feet is used as the pain threshold index. Animals are screened before the experiment, and animals with latency less than 5 s or more than 30 s are excluded. To prevent foot burns, the longest observation time is set to 60s. The basic pain threshold is the average of two measurements, and the interval between the two measurements is 5 minutes. The pain threshold of mice in each group is determined at 15 minutes, 30 minutes, 60 minutes and 120 minutes after intraperitoneal administration. The effective percentage of analgesia (% MPE) is calculated according to the following formula
[formula] According to the effective percentage of analgesia, the ED50 value is calculated by graphpad prism 5.0 software.

[1] = Metabolic stability in liver microsomes, mouse; conditions: for half-life at 2 μM / microsomal CLint at 2 μM: mouse, microsomes, pH 7.4
Protocol: The solution B is slowly dropped into solution A, and the pH is adjusted to 7.40±0.05.
• Control drug: 4 μL Verapamil solution (10 mM) is added with 96 μL DMSO and diluted to 400 μM; • Compound to be tested: 4 μL compound to be tested (10 mM) is added with 96 μL normal saline and diluted to 400 μM.
The microsomes are stored in the refrigerator at −80° C., thawed at room temperature after being taken out, and mixed gently.
[…] PBS (100 mm, pH=7.4) solution is added to the negative sample. The solution is put into water bath at 37° C. and pre-incubated for 10 minutes; • B) After incubation, 2 μL reference drug or compound to be tested (400 μM) are added into each well to start the reaction.

CYP 2C9 = CYP 2C9 (Homo sapiens, UniProt P11712); experiment: Inhibition of cytochrome P450 enzyme in human liver microsomes, CYP 2C9
CYP 2D6 = CYP 2D6 (Homo sapiens, UniProt P10635); experiment: Inhibition of cytochrome P450 enzyme in human liver microsomes, CYP 2D6
CYP 2C19 = CYP 2C19 (Homo sapiens, UniProt P33261); experiment: Inhibition of cytochrome P450 enzyme in human liver microsomes, CYP 2C19
[2] = Mouse liver microsomes 0.5 mg/mL, NADPH 1 mM, compound 2 μM

Structure (SMILES)	μOR binding rate (μOR)	δOR binding rate (δOR)	κOR binding rate (κOR)	ED50, hot plate (Female Kunming mice)	CLint [1, 2]	t1/2 [1, 2]	ED50 (Female Kunming mice)	half-life at 2 μM [1]	microsomal CLint at 2 μM [1]	IC50 (CYP 2C9)	IC50 (CYP 2D6)	IC50 (CYP 2C19)
COc1cccc([C@]2(O)CCN(S(=O)(=O)Cc3ccccc3)C[C@H]2CN(C)C)c1.Cl [Example 20 of CN201911076305.X, reference compound]	27.52 ± 1.54%	10.5 ± 3.7%	15.25 ± 1.56%	0.49 mg/kg	1101.92 μL/min/mg protein	1.26 min	–	–	–	–	–	–
[2H]C([2H])([2H])N(C)C[C@@H]1CN(S(=O)(=O)Cc2ccccc2)CC[C@@]1(O)c1cccc(OC)c1 [II-1hydrochloride]	27.9 ± 1.3%	11.6 ± 2.1%	16.37 ± 1.6%	–	–	–	0.52 mg/kg	5.19 min	659 µL/min/mg	> 50 µM	13 µM	> 50 µM
[2H]C([2H])([2H])N(C[C@@H]1CN(S(=O)(=O)Cc2ccccc2)CC[C@@]1(O)c1cccc(OC)c1)C([2H])([2H])[2H] [II-3hydrochloride]	28.2 ± 1.5%	12.3 ± 2.0%	15.3 ± 2.0%	–	–	–	0.5 mg/kg	5.24 min	660 µL/min/mg	> 50 µM	13.8 µM	> 50 µM
[2H]C([2H])([2H])Oc1cccc([C@]2(O)CCN(S(=O)(=O)Cc3ccccc3)C[C@H]2CN(C([2H])([2H])[2H])C([2H])([2H])[2H])c1 [II-5hydrochloride]	27.1 ± 1.2%	12.9 ± 1.8%	15.8 ± 4.6%	–	–	–	0.58 mg/kg	6.05 min	706 µL/min/mg	> 50 µM	15.3 µM	> 50 µM
[2H]C([2H])([2H])N(C)C[C@@H]1CN(C(=O)Cc2cc(F)c(F)cc2F)CC[C@@]1(O)c1cccc(OC)c1 [II-7hydrochloride, 1-((3R,4S)-4-hydroxy-4-(3-methoxyphenyl)-3-(((methyl-d3)amino)methyl)-1-piperidinyl)-2(2,4,5-trifluorophenyl)ethyl-1-one]	26.1 ± 2.3%	10.6 ± 2.0%	16.6 ± 2.9%	–	–	–	0.51 mg/kg	5.15 min	661 µL/min/mg	> 50 µM	14.7 µM	> 50 µM
[2H]C([2H])([2H])N(C[C@@H]1CN(C(=O)Cc2cc(F)c(F)cc2F)CC[C@@]1(O)c1cccc(OC)c1)C([2H])([2H])[2H] [II-9hydrochloride]	27.1 ± 1.1%	12.8 ± 0.8%	17.2 ± 3.5%	–	–	–	0.52 mg/kg	5.03 min	612 µL/min/mg	> 50 µM	13.7 µM	> 50 µM
[2H]C([2H])([2H])Oc1cccc([C@]2(O)CCN(C(=O)Cc3cc(F)c(F)cc3F)C[C@H]2CN(C([2H])([2H])[2H])C([2H])([2H])[2H])c1 [II-11hydrochloride]	24.3 ± 1.9%	10.4 ± 1.1%	16.4 ± 2.3%	–	–	–	0.64 mg/kg	6.01 min	700 µL/min/mg	> 50 µM	12.8 µM	> 50 µM

Source: patent US12509421B2, “Preparation and application of deuterated 4-phenyl-4-piperidinols” (priority 2022, dated 2025)
